Laboratory results reported in patent US4018786A, “2-Aminothiazolines and a process for preparation thereof” (Centre d'Etudes pour l'Industrie Pharmaceutique, priority 1974, dated 1977).
Where a name gives a salt, the structure may show the parent alone.

Key:
[1] = LD50/24 h by the method of Miller & Tainter, intravenous route, mice; conditions: mouse, in vivo, read-out: LD50 /24 h/kg of body weight
[2] = test system: ovalbumin-induced oedema; test: Generalised ovalbumin-induced oedema method (anti-inflammatory action); assay type: in vivo, rats; conditions: for percentage of reduction of oedematic reaction, 1st hour / percentage of reduction of oedematic reaction, 2nd hour: 50 mg/kg oral; for percentage of decrease of the oedematic reaction, Second Hour / percentage of decrease of the oedematic reaction, Third Hour: 100 mg oral, rats
Experimental: b. Generalised ovalbumin-induced oedema method
A simultaneous intraperitoneal injection of 1 ml of ovalbumin and of 0.5 ml of an aqueous solution of Evans Blue at 1 ml per thousand by weight is administered to rats.
For comparative purposes, 100 mg of the compound to be tested is administered orally to the animals of the group to be treated, 1 hour before and at the same time as the ovalbumin. The intensity of the phenomenon thus provoked in noted by a FIG. 1 to 5 according to the intensity of the inflammatory syndrome.
Thus one determines the average of the oedematic intensity and the percentage of decrease of the oedematic reaction in relation to the control animals.
b. method of generalised ovalbumin-induced oedema
The percentages of reduction of oedematic reaction, in the test animals, in subjects treated by the oral route by the administration of […] of the compound to be tested show the clear anti-inflammatory action of the compounds according to the invention.

[3] = Propyl-thiouracil test (hypocholesterolemic action); assay type: in vivo, rats
Experimental: a. Propyl-thiouracil test (RANNEY et Coll. J. Pharmacol. Exper. Therap. 1963, 142, 132-136)
The administration of propyl-thiouracil to adult rats renders them hypercholesterolemic; in effect, the plasmatic cholesterol rate has increased by about 15%. The testing is carried out on two groups of rats, the control group receiving the propyl-thiouracil only whilst the treated group also receives 100 mg/kg of the compounds to be tested, by the oral route.
On the 11th day of the experiment, the blood samples are taken and the β-lipoproteins, the free cholesterol and the total cholesterol measured.
a. Propyl-thiouracil test (Ranney et Coll. J. Pharmacol. Exper. Therap. 1963, 142, 132-136)
This test has shown the clearly favourable action of the derivatives according to the invention, at a dose of […].

[4] = Triton test (hypocholesterolemic action); assay type: in vivo, rat; conditions: for reduction of free cholesterol and total cholesterol levels: 50 mg/kg oral; for reduction of free cholesterol and of total cholesterol: 100 mg/kg oral, rat, 18 hours after Triton
Experimental: The intravenous injection of Triton W-R 1339 (an alkylaryl polyetheralcohol sold by Rohm and Haas) enables one to artifically increase, in the rat, certain lipidic fractions of serum and thus to evalute the hypocholesterolemic action of the compounds of the invention. […]
Eighteen hours later a blood sample is taken and the β-lipoproteins, the free cholesterol and the cholesterol are determined.
This test, which enables one to evaluate the hypocholesterolemic action of the derivatives to be tested, on serum levels of certain lipid fractions, has shown the remarkable effect of the compounds according to the invention.

[5] = LD50/24 hours by the method of Miller & Tainter, intravenous route (derivatives 34 to 38, species not restated); conditions: in vivo, read-out: LD50 /24 hours /kg of body weight
[6] = test system: carrageenin-induced oedema; test: Localised carrageenin-induced oedema method (anti-inflammatory action); assay type: in vivo, rat; conditions: for reduction of the inflammatory reaction, 1st hour / reduction of the inflammatory reaction, 2nd hour / reduction of the inflammatory reaction, 3rd hour / reduction of the inflammatory reaction, 4th hour / reduction of the inflammatory reaction, 5th hour: 50 mg/kg oral; for percentage of anti-inflammatory activity, First Hour / percentage of anti-inflammatory activity, Second Hour / percentage of anti-inflammatory activity, Third Hour / percentage of anti-inflammatory activity, Fifth Hour: 100 mg/kg oral per administration, rat; for percentage of anti-inflammatory activity, First Hour: 1 hour after carrageenin; for percentage of anti-inflammatory activity, Second Hour: 2 hours after carrageenin; for percentage of anti-inflammatory activity, Third Hour: 3 hours after carrageenin; for percentage of anti-inflammatory activity, Fifth Hour: 5 hours after carrageenin
Experimental: a. Localised carrageenin-induced oedema method
A 1% solution of carrageenin (0.1 ml) is injected into the metatarsal flexor muscles of the right hand rear paw of the rat at time "0".
The animals of the treated group also receive, by the oral route, 100 mg/kg of the compound to be tested, respectively 1 hour before and at the same time as the injection of the phlogogenic agent, then 1 hour and 21/2 hours after. The measurements made with the aid of a micrometer at the time "0" and 1 hour, 2 hours, 3 hours and 5 hours after the administration of the carrageenin, enable one to determine, in relation to time, the percentage of anti-inflammatory activity in relation to the control group.
a. method of localised carrageenin-induced oedema
The oral administration of […] of the derivatives to be tested produces a clear reduction of the inflammatory reaction provoked.

[7] = 100 mg/kg oral, rats, 11th day, control 0.20 g/l
[8] = 100 mg/kg oral, rats, 11th day, control 0.86 g/l

| SMILES | LD50 at 24 h [1] [mg/kg] | percentage of reduction of oedematic reaction, 1st hour [2] [%] | percentage of reduction of oedematic reaction, 2nd hour [2] [%] | Free cholesterol ([3]; 50 mg/kg, control 0.25) | Total cholesterol ([3]; 50 mg/kg, control 0.89) | reduction of free cholesterol and total cholesterol levels [4] [%] | LD50 at 24 h [5] [mg/kg] | reduction of the inflammatory reaction, 1st hour [6] | reduction of the inflammatory reaction, 2nd hour [6] | reduction of the inflammatory reaction, 3rd hour [6] | reduction of the inflammatory reaction, 4th hour [6] | reduction of the inflammatory reaction, 5th hour [6] | further results |
| --- | --- | --- | --- | --- | --- | --- | --- | --- | --- | --- | --- | --- | --- |
| CCN(CC)CC=C1CN=C(NC(C)(C)CC(C)(C)C)S1 [Derivative No. 18, 5-(β-diethylaminoethylidene) 2-(1,1,3,3-tetramethyl-butyl-amino) Δ^2-thiazoline] | 45 | – | – | – | – | – | – | – | – | – | – | – | – |
| FC(F)(F)c1cccc(N2CCN(CC=C3CN=C(NC4CCCCC4)S3)CC2)c1 [Derivative No. 36] | – | 55 | 61 | 0.13 | 0.63 | ~27 | 65 | 46 | 50 | 59 | 61 | 62 | – |
| Clc1ccccc1N1CCN(CC=C2CN=C(NC3CCCCC3)S2)CC1 [Derivative No. 37, 5-[4-β-(orthochlorophenyl)piperazinoethylidene]2-cyclohexylamino Δ^2-thiazoline] | – | 60 | 68 | 0.10 | 0.60 | ~41 | 57 | 38 | 43 | 48 | 52 | 57 | – |
| CCN(CC)CC=C1CN=C(N2CCN(C)CC2)S1 [Derivative No. 12, 5-(2-diethylaminoethylidene) 2-(4-methyl 1-piperazinyl) Δ^2-thiazoline tetrahydrochloride] | 90 | – | – | – | – | – | – | – | – | – | – | – | Free cholesterol [3, 7]: 0.15 g/L; Total cholesterol [3, 8]: 0.61 g/L; reduction of free cholesterol and of total cholesterol [4]: ~26% |
| CCN(CC)CC=C1CN=C(NCC(O)c2ccccc2)S1 (stereo not drawn) [Derivative No. 4, 2-β-hydroxyphenethylamino 5-(N-diethylaminoethylidene) Δ^2-thiazoline] | – | – | – | – | – | – | – | – | – | – | – | – | percentage of decrease of the oedematic reaction, Second Hour [2]: 59%; percentage of decrease of the oedematic reaction, Third Hour [2]: 65%; percentage of anti-inflammatory activity, First Hour [6]: 39%; percentage of anti-inflammatory activity, Second Hour [6]: 40%; percentage of anti-inflammatory activity, Third Hour [6]: 49%; percentage of anti-inflammatory activity, Fifth Hour [6]: 53% |
| COc1ccc(N2CCN(CC=C3CN=C(NC4CCCCC4)S3)CC2)cc1 [Derivative No. 38, 2-cyclohexylamino 5-[4-β-(paramethoxyphenyl)piperazinoethylidene] Δ^2-thiazoline] | – | 64 | 70 | 0.09 g/L | 0.58 | ~44 | 52 | 49 | 53 | 56 | 60 | 61 | – |
| CCN(CC)CC=C1CN=C(N(CC)C2CCCCC2)S1 [Derivative No. 10, 5-(β-diethylaminoethylidene) 2-N-ethyl N-cyclohexylamino) Δ^2-thiazoline oxalate] | – | – | – | – | – | – | – | – | – | – | – | – | percentage of decrease of the oedematic reaction, Second Hour [2]: 57%; percentage of decrease of the oedematic reaction, Third Hour [2]: 64%; percentage of anti-inflammatory activity, First Hour [6]: 44%; percentage of anti-inflammatory activity, Second Hour [6]: 47%; percentage of anti-inflammatory activity, Third Hour [6]: 52%; percentage of anti-inflammatory activity, Fifth Hour [6]: 56% |
| CCN(CC)CC=C1CN=C(N(CC)CC)S1 [Derivative No. 15, 2-diethylamino 5-(2-diethylaminoethylidene) Δ^2-thiazoline dioxalate] | – | – | – | – | – | – | – | – | – | – | – | – | Free cholesterol [3, 7]: 0.12 g/L; Total cholesterol [3, 8]: 0.58 g/L; reduction of free cholesterol and of total cholesterol [4]: ~22% |
| CCN(CC)CC=C1CN=C(NC)S1 [Derivative No. 21, 5-(β-diethylaminoethylidene) 2-methylamino Δ^2-thiazoline oxalate] | 92 | – | – | – | – | – | – | – | – | – | – | – | – |
| CCN(CC)CCc1cnc(N(C)C2CCCCC2)s1 [Derivative No. 22, 5-β-diethylaminoethyl 2-(N-methyl N-cyclohexylamino)-thiazole dioxalate] | – | – | – | – | – | – | – | – | – | – | – | – | percentage of decrease of the oedematic reaction, Second Hour [2]: 52%; percentage of decrease of the oedematic reaction, Third Hour [2]: 60%; percentage of anti-inflammatory activity, First Hour [6]: 42%; percentage of anti-inflammatory activity, Second Hour [6]: 46%; percentage of anti-inflammatory activity, Third Hour [6]: 54%; percentage of anti-inflammatory activity, Fifth Hour [6]: 56% |
| CCN(CC)CCC1CN=C(NC2CCCCC2)S1 (stereo not drawn) [Derivative No. 3, 2-cyclohexlamino 5-β-diethylaminoethyl Δ^2-thiazoline] | – | – | – | – | – | – | – | – | – | – | – | – | percentage of decrease of the oedematic reaction, Second Hour [2]: 54%; percentage of decrease of the oedematic reaction, Third Hour [2]: 60%; percentage of anti-inflammatory activity, First Hour [6]: 37%; percentage of anti-inflammatory activity, Second Hour [6]: 39%; percentage of anti-inflammatory activity, Third Hour [6]: 46%; percentage of anti-inflammatory activity, Fifth Hour [6]: 48% |
| CCN(CC)CC=C1CN=C(N2CCOCC2)S1 [Derivative No. 14, 5-β-diethylaminoethylidene 2-morpholino Δ^2-thiazoline oxalate] | 105 | – | – | – | – | – | – | – | – | – | – | – | – |
| CCN(CC)CC=C1CN=C(NC2CCCCC2)S1 [Derivative No. 1, 2-cyclohexylamino 5-β-diethylaminoethylidene Δ^2-thiazoline] | 42 | – | – | – | – | – | – | – | – | – | – | – | Free cholesterol [3, 7]: 0.14 g/L; Total cholesterol [3, 8]: 0.60 g/L; reduction of free cholesterol and of total cholesterol [4]: ~28% |
| C(CN1CCN(c2ccccc2)CC1)=C1CN=C(NC2CCCCC2)S1 [Derivative No. 35, 2-cyclohexylamino 5-[4-β-(phenyl)piperazinoethylidene] Δ^2-thiazoline] | – | 62 | 65 | 0.11 | 0.61 | ~29 | 48 | 45 | 46 | 55 | 57 | 58 | – |
| CCCCNc1ncc(CCN(CC)CC)s1 [Derivative No. 9, 2-butylamino 5-β-diethylaminoethyl thiazole dihydrochloride] | – | – | – | – | – | – | – | – | – | – | – | – | Free cholesterol [3, 7]: 0.15 g/L; Total cholesterol [3, 8]: 0.58 g/L; reduction of free cholesterol and of total cholesterol [4]: ~24% |
| Clc1ccc(N2CCN(CC=C3CN=C(NC4CCCCC4)S3)CC2)cc1 [Derivative No. 34, 5-[4-β-(parachlorophenyl)piperazinoethylidene] 2-cyclohexylamino Δ^2-thiazoline] | – | 58 | 62 | 0.13 | 0.55 | ~34 | 35 | 40 | 44 | 50 | 53 | 55 | – |
